What was measured:
[1] = system: Human peripheral blood mononuclear cells (PBMC); assay: PBMC screening assay, TNF-α in supernatant; format: cell-based; settings: 24 hours, TNF-α in supernatant by ELISA or HTRF
Procedure: Human peripheral blood mononuclear cells (PBMC) were obtained from BenTek, frozen at 25×10^6 cell/mL in 10% DMSO (Sigma) prepared in fetal bovine serum (Gibco) and stored in liquid nitrogen. For culture PBMC were thawed quickly in a 37° C. water bath and diluted into pre-warmed RPMI 1640 (Lonza) supplemented with 10% fetal bovine serum, 2 mM glutamine, 50 μg/mL penicillin, 50 U/mL streptomycin (all from Gibco) and centrifuged for 5 minutes at 500×g. PBMC were suspended into the growth media described above and cultured at a concentration of 1×10^6 cells per mL at 37° C. in a 5% CO2 incubator.
PBMC were thawed, suspended at a concentration of 1×10^6 cell/mL in growth media and 200 μL was aliquoted into each well of a 96-well plate for a total of 0.2×10^6 cells per well. PBMC were incubated for 16-18 hours at 37° C. in a 5% CO2 humidified incubator. The following day PBMC plates were centrifuged at 500×g for 5 minutes and the growth media was removed. […] TNF-α activity was assessed in the supernatant by ELISA (eBioscience) or HTRF (CisBio) per the manufacturer's instructions. Optical density at 450 nm and 570 nm (ELISA) or luminescence (HTRF) was analyzed using an Envision (Perkin Elmer) plate reader, as shown in Table 5.

[2] = system: human monocytes injected intratumorally; assay: Antigen dependent monocyte activation in a mouse tumor model; format: in vivo, NOD SCID mice; settings: 5-20 mg/kg intravenously
Procedure: Human monocytes were prepared as described above. Trop2^+ MDA-MB-453 cells or Trop2-MiaPaca2 were cultured by standard methods. A TLR8 benzazepine linker payload (LP) was prepared by attaching a MCC (N-maleimidomethyl]cyclohexane-1-carboxylate) linker in place of the mc-vc-PABA linker in Compound-Linker 2.1 to form Compound-Linker 2.22. TROP2-TLR8 benzazepine conjugates were prepared by conjugation of Compound-Linker 2.22 to a TROP2 antibody (sacituzumab) to form a conjugate with an average DAR of about 4.
On Day 1 NOD SCID mice were injected with 5×10^5 Trop2^+ MDA-MB-453 cells or Trop2-MiaPaca2 cells. Seven to ten days later when the tumor size reached about 300 mm^3, the mice were injected intravenously with 5-20 mg/kg of the TROP2-TLR8 benzazepine conjugate or TROP2 antibody alone. Sixteen hours later, 10^6 human monocytes were injected intratumorally. Four to six hours later, the tumors were harvested and digested. Monocytes were identified by staining for cell surface markers and monocyte activation was determined by intracellular staining for IL-6.

Row | Compound | EC50 [1] [nM] | human monocyte activation (intracellular staining for IL-6) ([2]; mice having a TROP2-tumor (MiaPaca2)) | human monocyte activation (intracellular staining for IL-6) ([2]; mice having a TROP2^+ tumor (MDA-MB-453))
1 | CCCN(CCC)C(=O)C1=Cc2ccc(C(=O)NC3C[C@@H]3c3ccccc3)cc2N=C(N)C1 (stereo partly shown) [Compound 1.28] | < 500 |  | 
2 | control antibody: "TROP2 antibody alone" (sacituzumab) in Example 16; elsewhere the unconjugated parental aTROP2 or aHER2 antibody |  | did not cause human monocyte activation | did not cause human monocyte activation
3 | CCCN(CCC)C(=O)C1=Cc2ccc(C(=O)Nc3ccc4c(c3)CN(C(=O)OCc3ccccc3)CC4)cc2N=C(N)C1 [Compound 1.30] | < 500 |  | 

From US10519131B2, “Benzazepine compounds, conjugates, and uses thereof” (SILVERBACK THERAPEUTICS, INC., priority 2017, dated 2019)
